Test results: patent EP2599480A1 (priority 2011, dated 2013)
Where two headings read alike, the source gives them in different places.

Legend:
in vitro = details: dog; for CC50 at 72 h: mdck
[1] = biological target: NA of influenza virus A/PR/8/34 (Influenza A virus, UniProt P03468); experiment: biochemical; parameters: species or system H1N1 influenza virus A/Puerto Rico/8/34
[2] = system: NA of influenza virus A/Jena/5555/09; assay type: biochemical, clinical H1N1 isolate A/Jena/5555/09
[3] = system: NA of influenza virus A/Jena/5528/09; assay type: biochemical, clinical H1N1 isolate A/Jena/5528/09

Chain of NA of influenza virus A/PR/8/34 (P03468 whole entry, looked up): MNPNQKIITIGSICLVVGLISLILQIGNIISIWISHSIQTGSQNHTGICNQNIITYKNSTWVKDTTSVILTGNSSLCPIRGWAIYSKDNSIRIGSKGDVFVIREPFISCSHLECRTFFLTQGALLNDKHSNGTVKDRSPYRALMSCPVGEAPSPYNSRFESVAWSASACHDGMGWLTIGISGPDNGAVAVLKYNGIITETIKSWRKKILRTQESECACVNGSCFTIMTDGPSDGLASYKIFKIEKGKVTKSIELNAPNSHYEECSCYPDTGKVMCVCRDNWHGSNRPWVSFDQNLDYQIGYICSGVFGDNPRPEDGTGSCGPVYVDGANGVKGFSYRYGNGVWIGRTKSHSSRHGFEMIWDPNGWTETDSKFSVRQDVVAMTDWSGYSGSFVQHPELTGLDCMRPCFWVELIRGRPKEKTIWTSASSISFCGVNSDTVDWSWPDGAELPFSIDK

SMILES | CC50 at 72 h (in vitro) [µM] | also measured
Nc1c(N=Nc2ccc(S(=O)(=O)Nc3nccs3)cc2)cc(S(=O)(=O)O)c2ccccc12 [NCI compound 31348] | > 100 | 
O=C(Nc1cc(S(=O)(=O)O)cc2cc(S(=O)(=O)O)cc(O)c12)c1ccccc1 [NCI compound 16169] |  | CC50 (in vitro): > 100 µM
O=C(O)c1cc(C(=O)CCCC(=O)c2cc(C(=O)O)c(O)c3ccccc23)c2ccccc2c1O [NCI compound 292216] | > 100 | 
O=C(Nc1cc(S(=O)(=O)O)cc2cc(S(=O)(=O)O)ccc12)c1ccccc1 [NCI compound 37172] |  | CC50 (in vitro): > 100 µM
O=C(O)c1cc2ccccc2c(N=Nc2ccc(S(=O)(=O)Nc3ccccn3)cc2)c1O [NCI compound 134134] |  | IC50 ([1]; IC50 for A/PR/8/34): 0.45 µM
O=S(=O)(O)c1ccc2cc(N=Nc3cc(S(=O)(=O)O)c4cccnc4c3O)ccc2c1 [NCI compound 87877] | > 100 | IC50 [2]: 1.55 µM; IC50 [3]: 1.74 µM
CCCCCC(=O)Nc1cc(S(=O)(=O)O)cc2cc(S(=O)(=O)O)cc(O)c12 [NCI compound 97290] | > 100 | 
Cc1cc(NS(=O)(=O)c2ccc(N=Nc3c(O)c(C(=O)O)cc4ccccc34)cc2)nc(C)n1 [NCI compound 134140] | > 100 | 
CC(=O)Nc1cc(S(=O)(=O)O)cc2cc(S(=O)(=O)O)cc(O)c12 [NCI compound 74489] | > 100 | 
Cc1ccc(N=Nc2c(O)c(C(=O)O)cc3ccccc23)cc1C [NCI compound 134141] | > 100 | 
O=C(O)c1cc2ccccc2c(N=Nc2ccc(S(=O)(=O)O)cc2)c1O [NCI compound 134138] | > 100 | IC50 [2]: 2.9 µM; IC50 [3]: 3.06 µM
Nc1cc(S(=O)(=O)O)cc2cc(S(=O)(=O)O)c(N=Nc3cc(S(=O)(=O)O)cc4cc(S(=O)(=O)O)cc(O)c34)c(O)c12 [NCI compound 162530] | > 100 | 
CN(C)c1ccc(C=Nc2cc(S(=O)(=O)O)cc3cc(S(=O)(=O)O)cc(O)c23)cc1 [NCI compound 37200] | > 100 | IC50 [2]: 0.94 µM; IC50 [3]: 1.18 µM
Cc1ccc(S(=O)(=O)Oc2cc(S(=O)(=O)O)cc3cc(S(=O)(=O)O)cc(N)c23)cc1 [NCI compound 16168] |  | CC50 (in vitro): > 100 µM; IC50 ([1]; IC50 for A/PR/8/34): 5.91 µM
O=C(O)c1cc2ccccc2c(N=Nc2ccc(S(=O)(=O)Nc3nccs3)cc2)c1O [NCI compound 134135] | > 100 | IC50 [2]: 0.31 µM; IC50 [3]: 0.24 µM
Nc1ccc(C(=O)Nc2ccc(S(=O)(=O)O)c3cccc(O)c23)cc1 [NCI compound 37609] | > 100 | 
O=[N+]([O-])c1ccc(N=Nc2c(O)ccc3cc(S(=O)(=O)O)cc(S(=O)(=O)O)c23)cc1 [NCI compound 45539] | > 100 | 

SMILES | CC50 at 72 h (in vitro) [µM] | also measured
CCOc1ccc(N=Nc2ccc(C=Nc3ccc4c(O)cc(S(=O)(=O)O)cc4c3)cc2)cc1 [NCI compound 37220] | > 100 | IC50 ([1]; IC50 for A/PR/8/34): 0.42 µM
O=[N+]([O-])c1ccc(N=Nc2c(O)c(S(=O)(=O)O)cc3cc(S(=O)(=O)O)ccc23)cc1 [NCI compound 45540] | > 100 | 
N=C(N)NS(=O)(=O)c1ccc(N=Nc2c(O)c(C(=O)O)cc3ccccc23)cc1 [NCI compound 134139] | > 100 | 
O=S(=O)(O)c1cc2cccc(S(=O)(=O)O)c2c(O)c1N=Nc1ccccc1 [NCI compound 45549] | > 100 | IC50 ([1]; IC50 for A/PR/8/34): 4.85 µM
O=C(O)c1c(O)c(N=Nc2ccc(S(=O)(=O)Nc3ccccn3)cc2)cc2ccccc12 [NCI compound 134145] | > 100 | 
O=[N+]([O-])c1cccc(N=Nc2c(O)c(S(=O)(=O)O)cc3cc(S(=O)(=O)O)ccc23)c1 [NCI compound 45541] | > 100 | 
Nc1c(N=Nc2ccc(S(=O)(=O)Nc3ccccn3)cc2)cc(S(=O)(=O)O)c2ccccc12 [NCI compound 30456] |  | IC50 [1]: < 0.12 µM
Cc1ccc(Nc2nnc(CSc3ccc(Cl)cc3)s2)c(S(=O)(=O)O)c1 [NCI compound 369693] | > 100 | 
Cc1cccc(NS(=O)(=O)c2ccc(N=Nc3c(O)c(C(=O)O)cc4ccccc34)cc2)n1 [NCI compound 134133] |  | IC50 [1]: < 0.12 µM
O=C(O)c1cc2ccccc2c(N=Nc2ccc(S(=O)(=O)Nc3ncccn3)cc2)c1O [NCI compound 134136] | > 100 | 
O=[N+]([O-])c1ccc(N=Nc2c(O)ccc3cc(S(=O)(=O)O)ccc23)cc1 [NCI compound 45538] | > 100 | 
Nc1ccc(C(=O)Nc2cc(S(=O)(=O)O)cc3cccc(O)c23)cc1 [NCI compound 37176] |  | CC50 (in vitro): > 100 µM
CC1NOC(NS(=O)(=O)c2ccc(N=Nc3c(O)c(C(=O)O)cc4ccccc34)cc2)C1C (centres unmarked) [NCI compound 134132] |  | IC50 ([1]; read-out: IC50 for A/PR/8/34): 0.64 µM
Cc1nnc(NS(=O)(=O)c2ccc(N=Nc3c(O)c(C(=O)O)cc4ccccc34)cc2)s1 [NCI compound 134131] | > 100 | 
Cc1cc(S(=O)(=O)O)ccc1N=Nc1ccc(N=Nc2c(O)ccc3ccccc23)c(C)c1 [NCI compound 66221] |  | IC50 ([1]; IC50 for A/PR/8/34): 0.29 µM
Nc1ccc(C(=O)Nc2cc(S(=O)(=O)O)cc3cc(S(=O)(=O)O)ccc23)cc1 [NCI compound 37180] |  | CC50 (in vitro): > 100 µM
O=S(=O)(O)c1ccc2c(N=Nc3ccc(N=Nc4ccccc4)cc3)c(O)ccc2c1 [NCI compound 65545] | > 100 | IC50 [2]: 0.24 µM; IC50 [3]: 0.11 µM
